The source of these data is patent US10124033B2, “Peptides and methods of use” (BAXALTA INCORPORATED, priority 2014, dated 2018).

The term IC50 denotes the concentration needed to halve the response being measured.

Residues, ends and D or L forms follow the SMILES beside them.

Assay [1] concerns the target T1, Protein S (Homo sapiens, UniProt P07225).
T1 sequence (P07225 41-676 limits assumed): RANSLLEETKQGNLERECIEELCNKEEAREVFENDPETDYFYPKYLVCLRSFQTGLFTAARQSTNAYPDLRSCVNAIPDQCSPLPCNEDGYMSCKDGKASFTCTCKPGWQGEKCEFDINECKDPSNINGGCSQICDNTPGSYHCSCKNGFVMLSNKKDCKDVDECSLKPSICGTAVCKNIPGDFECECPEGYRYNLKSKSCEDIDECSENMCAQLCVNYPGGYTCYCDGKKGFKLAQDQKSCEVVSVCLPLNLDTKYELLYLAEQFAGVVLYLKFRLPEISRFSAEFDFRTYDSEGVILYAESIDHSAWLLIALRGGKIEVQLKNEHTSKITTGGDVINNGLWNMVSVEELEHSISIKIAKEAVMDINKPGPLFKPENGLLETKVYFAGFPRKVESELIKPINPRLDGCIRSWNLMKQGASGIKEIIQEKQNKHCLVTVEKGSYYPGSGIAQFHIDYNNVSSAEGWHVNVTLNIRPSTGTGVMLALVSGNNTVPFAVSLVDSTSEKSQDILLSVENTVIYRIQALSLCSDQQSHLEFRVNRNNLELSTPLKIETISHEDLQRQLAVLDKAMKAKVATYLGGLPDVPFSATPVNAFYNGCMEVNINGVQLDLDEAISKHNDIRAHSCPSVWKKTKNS
As to the kind of experiment: competition (IC50) ELISA with biotinylated tracer peptide JBS0684. In kind it is binding. The settings on record: competition ELISA, tracer JBS0684; re-synthesized peptides. Here is the method: The new peptide candidates were synthesized (purity >60%) and screened for affinity in a competitive binding assay (ELISA IC50) and activity in a thrombin generation assay (CAT). The competition (IC50) ELISA was performed using biotinylated tracer peptide JBS0684 to compete for Protein S-binding with candidate peptides. Peptides that compete with the tracer bind the same region of Protein S as the tracer (and each other). Ninety-six well PolySorp plates (Nunc) were coated with 3 μg/mL Protein S in coating buffer (15 mM Na2CO3, 35 mM NaHCO3, pH 9.6) over night. Plates were washed three times with wash buffer (HNaT: 175 mM NaCl, 25 mM HEPES, 5 mM CaCl2, 0.1% Tween 80, pH 7.35), and blocked with 100 μl 2% yeast extract in HNaT for at least 1 hour. Plates were then washed three times with HNaT. JBS0684 was applied at a concentration corresponding to the EC90 value determined in the binding ELISA. A competitor stock solution of peptide (10 mM) was diluted 1/33.3 in HNaT without HSA, and a serial ⅓ dilution was prepared with HNaT with 3% DMSO. The dilution was further diluted with the biotinylated tracer peptide in a ratio of 1:6 (20 μl competitor dilution and 100 μl tracer peptide). The mixture of competitor and tracer peptide was applied to the Protein S-coated microtiter plate and incubated for 1.5 hours. The plates were washed three times with HNaT. Peptide-Protein S binding was detected by applying HRP-conjugated streptavidin to the microtiter plate, incubating the mixture for one hour, washing the plate three times with HNaT, applying TMB (3,3′5,5′-Tetramethylbenzidin), and detecting the subsequent chromogenic conversion of TMB by HRP. IC50 measurements of peptides are provided herein (see, e.g., Table 3).
On the technique in general: ELISA stands for enzyme-linked immunosorbent assay.

In assay [2] the target is T1, Protein S. As to the kind of experiment: LANCE IC50 assay (competition TR-FRET) with tracer JBS0684. In kind it is binding. As to conditions: Table 4, multiple substitutions in JBS2572; read-out: LANCE IC50. Here is the method:
Peptides also were characterized in a competition, homogenous europium-based TR-FRET assay (LANCE IC50 assay) using JBS0684 as a tracer (i.e., competitor for Protein S binding). The following reagents were mixed together in a Perkin-Elmer ProxiPlate MTP well (indicated concentration is the final concentration): Eu-labeled Protein S (10 nM), Ulight™-labeled Streptavidin (100 nM), tracer (JBS0684 (300 nM)), and peptide (titrated in three-fold dilution steps). The final volume was 50 μl/well. The reaction mix was incubated for 1 hour at room temperature, then the fluorescence emission at 665 nm was recorded on a multi-mode reader (SpectraMax® M5, Molecular Devices) using the following instrument settings: Ex 340 nm, Em 665 nm, delay 50 μsec, integration 100 μsec, reads 100. Binding of tracer peptides to soluble europium-labeled Protein S was detected by Streptavidin labeled with an acceptor fluorophor (ULight™). Inhibition of tracer-binding to Protein S by a non-biotinylated peptide results in a decrease of TR-FRET between the Eu-labeled Protein S and ULight™-labeled Streptavidin. IC50 values were obtained from peptide titration curves at constant tracer concentration using non-linear regression of the fluorescence emission signals at 665 nm.
For orientation: In TR-FRET formats the signal depends on donor and acceptor labels being close together.

`CC(=O)N[C@H](C(=O)NCC(=O)N[C@@H](Cc1c[nH]cn1)C(=O)N[C@H](C(=O)N[C@@H](CO)C(=O)N[C@@H](C)C(=O)NCC(=O)N[C@@H](Cc1c[nH]c2ccccc12)C(=O)N[C@@H](Cc1ccc(O)cc1)C(=O)N[C@@H](CC(=O)O)C(=O)N[C@@H](Cc1ccc(O)cc1)C(=O)N[C@@H](CC(N)=O)C(=O)N[C@@H](Cc1ccccc1)C(=O)N[C@@H](CC(=O)O)C(=O)N[C@@H](CO)C(=O)N[C@@H](Cc1ccc(O)cc1)C(=O)N[C@@H](CCCNC(=N)N)C(=O)N[C@@H](CCC(=O)O)C(=O)N[C@@H](Cc1ccccc1)C(=O)N[C@H](C(N)=O)[C@@H](C)O)C(C)C)[C@@H](C)O` [JBS2661] (Ac-TGHVSAGWYDYNFDSYREFT-NH2) gave an IC50 at Protein S [1] of 2.8 nM.
Turning to `CSCC[C@H](NC(=O)[C@H](Cc1ccc(O)cc1)NC(=O)[C@@H](NC(=O)[C@H](CC(=O)O)NC(=O)[C@H](Cc1ccccc1)NC(=O)[C@H](CC(N)=O)NC(=O)[C@H](Cc1ccc(O)cc1)NC(=O)[C@H](CC(=O)O)NC(=O)[C@H](Cc1ccc(O)cc1)NC(=O)[C@H](Cc1c[nH]c2ccccc12)NC(=O)CNC(=O)[C@H](C)NC(=O)[C@H](CO)NC(=O)[C@@H](NC(=O)[C@H](CC(C)C)NC(=O)CNC(=O)[C@@H](NC(C)=O)[C@@H](C)O)C(C)C)[C@@H](C)O)C(=O)N[C@@H](CCC(=O)O)C(=O)N[C@@H](Cc1ccccc1)C(=O)N[C@H](C(N)=O)[C@@H](C)O` [JBS3186] (Ac-TGLVSAGWYDYNFDTYMEFT-NH2), the IC50 on Protein S [2] was determined as 2.6 nM.
Same read-out and setting: in the case of `CC(=O)N[C@@H](Cc1ccc(O)cc1)C(=O)NCC(=O)N[C@@H](CC(C)C)C(=O)N[C@H](C(=O)N[C@@H](CO)C(=O)N[C@@H](C)C(=O)NCC(=O)N[C@@H](Cc1c[nH]c2ccccc12)C(=O)N[C@@H](Cc1ccc(O)cc1)C(=O)N[C@@H](CC(=O)O)C(=O)N[C@@H](Cc1ccc(O)cc1)C(=O)N[C@@H](CC(N)=O)C(=O)N[C@@H](Cc1ccccc1)C(=O)N[C@@H](CC(=O)O)C(=O)N[C@H](C(=O)N[C@@H](Cc1ccc(O)cc1)C(=O)N[C@@H](CCCNC(=N)N)C(=O)N[C@@H](CCC(=O)O)C(=O)N[C@@H](Cc1ccccc1)C(=O)N[C@H](C(N)=O)[C@@H](C)O)[C@@H](C)O)C(C)C` [JBS3190] (Ac-YGLVSAGWYDYNFDTYREFT-NH2) it was 1.6 nM; in that of `CC(=O)N[C@@H](Cc1ccc(O)cc1)C(=O)NCC(=O)N[C@@H](CC(C)C)C(=O)N[C@H](C(=O)N[C@@H](CO)C(=O)N[C@@H](C)C(=O)NCC(=O)N[C@@H](Cc1c[nH]c2ccccc12)C(=O)N[C@@H](Cc1ccc(O)cc1)C(=O)N[C@@H](CC(=O)O)C(=O)N[C@@H](Cc1ccc(O)cc1)C(=O)N[C@@H](CC(N)=O)C(=O)N[C@@H](Cc1ccccc1)C(=O)N[C@@H](CC(=O)O)C(=O)N[C@H](C(=O)N[C@@H](Cc1ccc(O)cc1)C(=O)N[C@@H](CCCNC(=N)N)C(=O)N[C@@H](CCC(=O)O)C(=O)N[C@@H](Cc1ccccc1)C(=O)N[C@H](C(N)=O)[C@@H](C)O)C(C)C)C(C)C` [JBS3191] (Ac-YGLVSAGWYDYNFDVYREFT-NH2), 1.6 nM.
On the same count and under the same terms, in the case of `CC(=O)N[C@H](C(=O)NCC(=O)N[C@@H](CC(C)C)C(=O)N[C@H](C(=O)N[C@@H](CCC(=O)O)C(=O)N[C@@H](C)C(=O)NCC(=O)N[C@@H](Cc1c[nH]c2ccccc12)C(=O)N[C@@H](Cc1ccc(O)cc1)C(=O)N[C@@H](CC(=O)O)C(=O)N[C@@H](Cc1ccc(O)cc1)C(=O)N[C@@H](CC(N)=O)C(=O)N[C@@H](Cc1ccccc1)C(=O)N[C@@H](CC(=O)O)C(=O)N[C@H](C(=O)N[C@@H](Cc1ccc(O)cc1)C(=O)N[C@@H](CCCNC(=N)N)C(=O)N[C@@H](CCC(=O)O)C(=O)N[C@@H](Cc1ccccc1)C(=O)N[C@H](C(N)=O)[C@@H](C)O)[C@@H](C)O)C(C)C)[C@@H](C)O` [JBS3192] (Ac-TGLVEAGWYDYNFDTYREFT-NH2) it was 2.8 nM.
